The subject of test [1] is macrophages derived from wild-type mice. Description: Intracellular signalling (NF-κB EMSA, JNK and IRAK in vitro kinase assay) in macrophages, wild-type. The test is classed as cell-based, mouse. The conditions noted are these: 100 nM R-848 or 1.0 μM CpGDNA 1668. The procedure:
Next, the activation of intracellular signaling cascade to an antiviral immune-modulator was examined. Peritoneal macrophages (2×10^6 cells) from TLR7 knockout mice (TLR7KO) and wild-type mice respectively stimulated with thioglycollic acid, were stimulated with 100 nM of R-848 or 1.0 μM of CpGDNA 1668 (CpG) for a certain period of time, nucleoprotein was extracted, the extract obtained with the specific probe including NF-κB associated-site was incubated, electrophoresed, visualized by autoradiography, and NF-κB activation was examined as DNA-associated protein by electrophoretic mobility shift assay (EMSA). In FIG. 12, an arrow indicates induced NF-κB complexes, and an arrow head indicates a free probe.
The functional role of TLR7 in transactivation of NF-κB reporter gene induced by R-848 was examined. HEK293 cells were transiently cotransfected with TLR7 expression plasmids derived from human, and luciferase activity was measured before and after R-848 stimulation. The peritoneal macrophages derived from TLR7 knockout mice (TLR7KO) and wild-type mice stimulated with thioglycollic acid were stimulated with 100 nm of R-848 or 1.0 μM of phosphothioate modified CpGDNA 1668 (CpG), all cell lysate were prepared, immunoprecipated with anti-JNK antibody, and JNK activity was examined by In Vitro Kinase Assay using GST-c-Jun fusion protein as a substrate. The same lysate was blotted with anti-JNK antibody. Moreover, the lysate was immunoprecipated with anti-IRAK, and kinase activity of IRAK was examined by In Vitro Kinase Assay. The same lysate was blotted with anti-IRAK antibody. […] It is important to activate TLR7-MyD88-dependent signal pathway for the effect of imidazoquinoline in vivo.

The next test has as its system wild-type mice. Description: Serum cytokines after intraperitoneal R-848, wild-type mice. It is filed as in vivo, mouse. The conditions noted are these: 50 nmol intraperitoneally, ELISA. The method, then:
It was examined in vivo whether TLR7 was involved in a response to R-848. The wild-type mice, MyD88 knockout mice or TLR7 knockout mice were injected intraperitoneally with 50 nmol of R-848, the sera were harvested after a predetermined period of time, and the concentration of IFN-α, TNF-α and IL12p40 in sera was determined by ELISA. […] On the contrary, the increment of these cytokines was not observed in TLR7 knockout mice.
(An ELISA detects its analyte on a solid surface through an enzyme-linked reagent.)

Test [2] relates to peritoneal macrophages derived from TLR7 knockout mice (TLR7KO). Nature of the test: Cytokine production by peritoneal macrophages (ELISA), TLR7 knockout. It is filed as cell-based, mouse. The conditions noted are these: 5×10^4 cells, presence or absence of 30 U/ml IFN-γ, 24 h culture. The method, then: 2 ml of 4% thioglycollic acid medium (DIFCO) were injected into the intraperitoneals of the wild-type mice, TLR7 knockout mice (TLR7KO), MyD88 knockout mice (MyD88KO) and TLR9 knockout mice (TLR9KO), respectively, three days later, peritoneal exudate cells were isolated from intraperitoneal of each mouse, these cells were cultured in PRMI 1640 medium (GIBCO) added with 10% fatal bovine serum (GIBCO) at 37° C. for two hours, nonadherent cells were […] by washing with Hank's buffered salt solution (HBBS; GIBCO) at iced temperature, and the adherent cells were used as peritoneal macrophages in following experiment. Total RNA (10 μg) obtained from macrophages derived from the wild-type mice (+/Y) and TLR7 knockout mouse (TLR7KO) was electrophoresed, transferred onto a nylon membrane, and hybridized with a part of TLR7 DNA, and this membrane was rehybridized with β-actin probe. It was examined by the Northern blotting. From the results shown in FIG. 3, the expression of TLR7mRNA could not be found in TLR7 knockout mice.
In addition, the measurement of cytokine generated from peritoneal macrophages was executed as follows; […] peritoneal macrophages of 2×10^5 well or 5×10^4 well were cultured in 96-well plate respectively, and after stimulated with the above-mentioned reagents for 24 h, concentration of TNF-α, IL-12p40, IL-6 and/or IFN-α were measured by ELISA according to the manual.
Next, the peritoneal macrophages (5×10^4 cells) derived from TLR7 knockout mice (TLR7KO), TLR9 knockout mice (TLR9KO) and wild-type mice were stimulated with CpGDNA 1668 (phosphorothioate 1688). D19, AAC30, natural 1688 (phosphodiester 1688). genomic DNA derived from Escherichia coli, or genomic DNA derived from Micrococcus deikticus at of a predetermined concentration in the presence (+) or absence (−) of 30 U/ml of IPN-γ, and the concentration of IL-12p40 produced by production of peritoneal macrophages contained in cultured supernatant was measured by ELISA after 24 h of culture. The results are shown in FIG. 6 (in the figure, marks of * show detection limits and below). […]

As to `CCOCc1nc2c(N)nc3ccccc3c2n1CC(C)(C)O` [R-848, resiquimod], in test [1], the “activation of c-Jun N terminal kinase (JNK)” value was “induced”, the “enhanced DNA avidity of NF-κB transcription (EMSA)” value is recorded as “induced” and the “phosphorylation of IRAK” value is “induced”. Besides, in the test with wild-type mice, the “concentration of IFN-α in sera” value is given as “increased significantly”, the “concentration of IL12p40 in sera” value is given as “increased significantly” and the “concentration of TNF-α in sera” value is on record as “increased significantly”. Besides, in test [2], the “production of IL-6 by peritoneal macrophages” value is on record as “not confirmed”, the “production of IL-12p40 by peritoneal macrophages” value is “not confirmed” and the “production of TNF-α by peritoneal macrophages” value is on record as “not confirmed”.

Source of the values: patent publication US7608750B2, “Nonhuman model animal unresponsive to immunopotentiating synthetic compound” (Japan Science and Technology Agency, priority 2001, dated 2009).
